≈ marks a conversion by molar mass, not a printed value. Calls of active or inactive are those of the source. The rule behind the calls is not given here.

In ChEMBL document CHEMBL1147359, “Antitumor agents, 138. Rotenoids and isoflavones as cytotoxic constitutents from Amorpha fruticosa” (1993) one finds EC50 and ED50 data, which are given here for ten compounds.

In experiment [1] the test system is A549. The experiment is described as follows: Cytotoxicity against human A549 cells. Type of experiment: functional. The conditions noted are these: read-out: ED50 (the source's name).
Experiment [2] concerns HCT-8. Put plainly: Cytotoxicity against human HCT8 cells. Type of experiment: functional. As to conditions: read-out: ED50 (the source's name).
The test system of experiment [3] is RPMI-7951. The experiment is described as follows: Cytotoxicity against human RPMI7951 cells. As to conditions: read-out: ED50 (the source's name). The format is functional.
Experiment [4] concerns TE-671. Put plainly: Cytotoxicity against human TE671 cells. The format is functional. As to conditions: read-out: ED50 (the source's name).
Experiment [5] concerns KB. Put plainly: Cytotoxicity against human KB cells. The format is functional. The conditions noted are these: read-out: ED50 (the source's name).
Experiment [6] relates to P388. The experiment is described as follows: Cytotoxicity against mouse P388 cells. The conditions noted are these: read-out: ED50 (the source's name). The format is functional.
Experiment [7] relates to A549. Put plainly: Cytotoxicity against human A549 cells at 10 ug/ml. Type of experiment: functional, cell-based.
The test system of experiment [8] is HCT-8. The experiment is described as follows: Cytotoxicity against human HCT8 cells at 10 ug/ml. Type of experiment: functional, cell-based.
In experiment [9] the test system is RPMI-7951. Put plainly: Cytotoxicity against human RPMI7951 cells at 10 ug/ml. The format is functional, cell-based.
The test system of experiment [10] is TE-671. Put plainly: Cytotoxicity against human TE671 cells at 10 ug/ml. Type of experiment: functional, cell-based.
Experiment [11] concerns KB. Put plainly: Cytotoxicity against human KB cells at 10 ug/ml. The format is functional, cell-based.
Experiment [12] concerns P388. The experiment is described as follows: Cytotoxicity against mouse P388 cells at 10 ug/ml. The format is functional, cell-based.

For `C=C(CO)[C@H]1Cc2c(ccc3c2O[C@@H]2COc4cc(OC)c(OC)cc4[C@]2(O)C3=O)O1` [DABINOL], the EC50 with A549 [1], with HCT-8 [2], in the experiment on RPMI-7951 [3], with TE-671 [4], in the experiment on KB [5] and in the experiment on P388 [6] was < 0.001 µg/mL in each case.

For the compound `C=C(CO)[C@H]1Cc2c(ccc3c2O[C@@H]2COc4cc(OC)c(OC)cc4[C@@H]2C3=O)O1` [AMORPHIGENIN], the EC50 was 0.05 µg/mL (≈ 0.122 µM) in the experiment with A549 [1]; 0.03 µg/mL (≈ 0.0731 µM) in the experiment with HCT-8 [2]; 0.05 µg/mL (≈ 0.122 µM) in the experiment with RPMI-7951 [3]; < 0.01 µg/mL in the experiment on TE-671 [4]; 0.04 µg/mL (≈ 0.0975 µM) in the experiment on KB [5]; 0.04 µg/mL (≈ 0.0975 µM) with P388 [6].

`COc1cc2c(cc1OC)[C@@H]1C(=O)c3ccc4c(c3O[C@@H]1CO2)C[C@H](C(C)(C)O[C@@H]1O[C@H](CO)[C@@H](O)[C@H](O)[C@H]1O)O4`: in the experiment on A549 [7], the ED50 entry was “inactive”. Further, the EC50 was determined as 7.43 µg/mL (≈ 12.9 µM) with HCT-8 [2]; 4.44 µg/mL (≈ 7.73 µM) in the experiment on RPMI-7951 [3]; 2.95 µg/mL (≈ 5.13 µM) in the experiment on TE-671 [4]; 6.32 µg/mL (≈ 11 µM) with KB [5]; 6.68 µg/mL (≈ 11.6 µM) in the experiment on P388 [6].

On to `COc1ccc(-c2coc3c(OC)c(O)ccc3c2=O)cc1`, for which the ED50 result in the experiment with A549 [7], in the experiment with HCT-8 [8], in the experiment with RPMI-7951 [9], with TE-671 [10], with KB [11] and in the experiment on P388 [12] was “inactive” throughout.

`COc1cc2c(cc1OC)[C@@H]1C(=O)c3ccc4c(c3O[C@@H]1CO2)C[C@H](C(C)(C)O)O4` [DALPANOL]: the EC50 in the experiment on A549 [1] is 0.86 µg/mL (≈ 2.09 µM); in the experiment with HCT-8 [2], 0.48 µg/mL (≈ 1.16 µM); with RPMI-7951 [3], 4.83 µg/mL (≈ 11.7 µM); in the experiment on TE-671 [4], 0.49 µg/mL (≈ 1.19 µM); with KB [5], 0.89 µg/mL (≈ 2.16 µM). For the same compound, in the experiment with P388 [12], the ED50 result is “inactive”.

With `COc1ccc(-c2coc3cc(O)c(OC)cc3c2=O)cc1`, the ED50 result in the experiment on A549 [7], with HCT-8 [8], in the experiment on RPMI-7951 [9], in the experiment with TE-671 [10], with KB [11] and in the experiment on P388 [12] was “inactive” each time.

`COc1cc2c(cc1OC)[C@]1(O)C(=O)c3ccc4c(c3O[C@@H]1CO2)C[C@H](C(C)(C)O)O4`: the EC50 with A549 [1] amounted to 9.28 µg/mL (≈ 21.7 µM); in the experiment on HCT-8 [2] it was 0.56 µg/mL (≈ 1.31 µM); in the experiment on RPMI-7951 [3], 0.73 µg/mL (≈ 1.7 µM); in the experiment on TE-671 [4], 0.12 µg/mL (≈ 0.28 µM); in the experiment on KB [5], 3.67 µg/mL (≈ 8.57 µM); in the experiment with P388 [6] it was 0.59 µg/mL (≈ 1.38 µM).

With `COc1ccc2c(=O)c(-c3cc(OC)c(OC)cc3OC)coc2c1`, the ED50 result in the experiment on A549 [7] and with TE-671 [10] was “inactive” in each case. In addition, the EC50 stood at 4.63 µg/mL (≈ 13.5 µM) in the experiment on HCT-8 [2], 0.49 µg/mL (≈ 1.43 µM) in the experiment with RPMI-7951 [3], 0.55 µg/mL (≈ 1.61 µM) in the experiment on KB [5] and 0.53 µg/mL (≈ 1.55 µM) with P388 [6].

On to `COc1cc2c(cc1OC)[C@]1(O)C(=O)c3ccc4c(c3O[C@@H]1CO2)C=CC(C)(C)O4` [TEPHROSIN], for which the EC50 in the experiment on A549 [1] was < 0.001 µg/mL; with HCT-8 [2], 0.09 µg/mL (≈ 0.219 µM); with RPMI-7951 [3], 0.07 µg/mL (≈ 0.171 µM); in the experiment with TE-671 [4], 0.05 µg/mL (≈ 0.122 µM); in the experiment with KB [5] it was 0.36 µg/mL (≈ 0.877 µM); in the experiment on P388 [6], 0.06 µg/mL (≈ 0.146 µM).

For the compound `COC1=CC(=O)[C@]2(C=C1OC)OC[C@H]1Oc3c(ccc4c3C=CC(C)(C)O4)C(=O)[C@H]12` [AMORPHISPIRONONE], the ED50 result with A549 [7], with HCT-8 [8], in the experiment with TE-671 [10] and with P388 [12] was “inactive” throughout. Besides, the EC50 in the experiment on RPMI-7951 [3] amounted to 0.61 µg/mL (≈ 1.49 µM); in the experiment with KB [5] it was 0.58 µg/mL (≈ 1.41 µM).
